Reference: article PMC8861615, “Searching for plant-derived antivirals against dengue virus and Zika virus” (Virology Journal, 2022)
Entries after “also recorded” stand apart in the source; their conditions may differ. Where two headings read alike, the source gives them in different places.

What was measured:
DENV-2 [1] = assay: Virucidal activity by plaque reduction assay, DENV in BHK-21 cells; assay type: cell-based, Dengue virus serotype 2; details: compounds
Experimental: (§1) The virucidal activity of extracts and compounds against ZIKV and DENV was assessed by plaque reduction assay in Vero and BHK-21 cells, respectively, in 24 well microplates. […] Virus suspension without the extract/compound was included as a control. Surviving infectious viral particles were assessed by viral plaque formation assay. Briefly, the infected monolayers were overlaid with 1.5% carboxymethyl cellulose containing MEM with 2% FBS and incubated for five days. After that, cell monolayers were fixed with 10% formaldehyde and stained with 1% crystal violet 1% in an 30% ethanol aqueous solution.

[2] = Cytotoxicity (CC50) by MTT method in BHK-21 cells; assay type: cell-based, Hamster; details: hamster, compounds, MTT
Experimental: (§2) Compounds and selected extracts that tested positive for anti-ZIKV or anti-DENV-2 activity at the screening step had their CC50 determined by using an 8‐point dose range in 96 well microplate containing Vero or BHK-21 cell monolayers. Cell viability was observed by optic microscopy and measured by the MTT method as described. The experiments were performed in duplicate and repeated at least three times.
(§3) Bioassay data were normalized to untreated uninfected cells and the EC50 and CC50 values were obtained using GraphPad Prism 5 based on nonlinear logistic regression of the experimental dose–response curves. The values correspond to three independent assays' average and standard deviation with at least 8 sample distinct concentrations. The CC50 and EC50 values ratio was used as a selectivity index (SI). The extracts and compounds with higher SI values were considered the most promising and selected for further investigation if available in sufficient quantities.

DENV-2 [3] = assay: Anti-DENV-2 activity by viral CPE reduction and MTT method in BHK-21 cells; assay type: cell-based, Dengue virus serotype 2
Experimental: (§4) Plant extracts were screened for their cytotoxic and anti-ZIKV and anti-DENV activities in Vero cells and BHK-21, respectively, in 96-well culture plates by observing the reduction of the viral cytopathic effect (CPE) and then measured by the MTT method. The crude extracts were dissolved in 4% DMSO aqueous solution, and their concentration was normalized to 50 µg/ml with Eagle's minimum essential medium (MEM) supplemented with 2% fetal bovine serum (FBS). Briefly, 8 × 10^3 of BHK-21 cells or 1 × 10^4 of Vero cells per well were seeded in a 96-well plate and incubated for 24 h at 37 °C and 5% CO2 atmosphere. Extract solution and virus suspension, at a multiplicity of infection (m.o.i.) of 2, for both viruses, were simultaneously added on 70% confluent monolayers. Each extract was tested in duplicate. Controls of untreated infected and untreated uninfected cells incubated with or without DMSO were included. Interferon-α 2B, in concentrations of 500 and 1000 IU/mL, was used as a positive antiviral control in all antiviral assays. […] Briefly, the supernatants were removed, and 30 µl of a stock solution of MTT (2 mg/ml) dissolved in phosphate-buffered saline were added to each well. After 90 min of incubation at 37 °C, 130 µl of DMSO were added to each well, and plates were homogenized for 5 min at 500 rpm. The absorbance values of each reaction were measured in an ELISA reader (Spectra Max, Molecular Devices, USA) at λ540 nm. […] Cytotoxicity (CC50) and anti-ZIKV/DENV-2 (CE50) experiments were performed in duplicate and repeated at least three times.
(§5) Viral CPE and cell viability were observed by optic microscopy and measured by the MTT method as previously described. […] The experiments were performed in duplicate and repeated at least three times.
(§6) Bioassay data were normalized to untreated uninfected cells and the EC50 and CC50 values were obtained using GraphPad Prism 5 based on nonlinear logistic regression of the experimental dose–response curves. […] The CC50 and EC50 values ratio was used as a selectivity index (SI).

ZIKV [4] = assay: microbe, parasite or virus in culture; assay type: cell-based, Zika virus; details: for EC50 / ZIKV EC50 (µM): compounds, Vero cells, MTT
Experimental: as §4, §5, §6

ZIKV [5] = assay: Virucidal activity by plaque reduction assay, ZIKV in Vero cells; assay type: cell-based, Zika virus; details: compounds
Experimental: as §1

[6] = Cytotoxicity (CC50) by MTT method in Vero cells; assay type: cell-based; details: African green monkey, compounds, MTT
Experimental: as §2, §3

BHK-21 cells = assay: Cytotoxicity (CC50) by MTT method in BHK-21 cells; assay type: cell-based, Hamster; details: for CC50: compounds, MTT
Experimental: as §2, §3

Vero cells = assay: Cytotoxicity (CC50) by MTT method in Vero cells; assay type: cell-based; details: for CC50: compounds, MTT
Experimental: as §2, §3

[7] = Dengue virus, DENV2, BHK-21, read-out: DENV-2 EC50 (µM)
[8] = compounds, BHK-21 cells, MTT, read-out: DENV-2 EC50

Structure (SMILES) | DENV-2 Virucidal activity (DENV-2 [1]) | ZIKV Virucidal activity (ZIKV [5]) | CC50 (BHK-21 cells) [µM] | DENV-2 EC50 (µM) (DENV-2 [3]; compounds, BHK-21 cells, MTT) | CC50 (Vero cells) [µM] | EC50 (ZIKV [4]) [nM] | further results
O[C@H]1[C@H]2c3cc4c(cc3CN3CCC(=C[C@@H]1O)[C@H]23)OCO4 [Lycorine] | No | No | – | – | – | – | CC50 [2]: 4.3 µM; EC50 (DENV-2 [3]; [7]): 0.5 µM; EC50 (ZIKV [4]; Zika virus): 900 nM; CC50 [6]: 3.4 µM
CC(=O)O[C@H]1[C@H]2c3cc4c(cc3CN3CCC(=C[C@@H]1OC(C)=O)[C@H]23)OCO4 [1,2-diacetyl-lycorine] | No | No | > 100 | no antiviral activity; also recorded: Inactive | > 100 | – | ZIKV EC50 (µM) (ZIKV [4]): Inactive
O=C1N[C@@H]2C(=C[C@H](O)[C@@H](O)[C@H]2O)c2cc3c(c(O)c21)OCO3 [Narciclasine] | No | No | – | – | – | 20 | EC50 (DENV-2 [3]; [8]): 0.02 µM; Active concentration against DENV-2, times less than lycorine (DENV-2 [3]; ratio versus lycorine): 25 times; Active concentration against DENV-2, times less than pretazettine (DENV-2 [3]; ratio versus pretazettine): 40 times; Active concentration against ZIKV, times less than lycorine (ZIKV [4]; ratio versus lycorine): 45 times; Active concentration against ZIKV, times less than pretazettine (ZIKV [4]; ratio versus pretazettine): 95 times
CC(=O)O[C@H]1[C@H]2c3cc4c(cc3CN3CCC(=C[C@@H]1O)[C@H]23)OCO4 [1-acetyl-lycorine] | No | No | 7.8 | no antiviral activity; also recorded: Inactive | 19.8 | 19300 | –
O=C1NC2C(=C[C@H](O)[C@@H](O)[C@H]2OC2OCC(O)C(O)C2O)c2cc3c(c(O)c21)OCO3 (stereo partly drawn) [Narciclasine-4-O-β-D-xylopyranoside, narciclasine-4-O-β-D-xylopyranoside] | No | No | 39.3 | – | 51.8 | 7900 | Times less toxic than narciclasine in BHK-21 cells (BHK-21 cells; ratio versus narciclasine): 430 times; EC50 (DENV-2 [3]; [8]): 7.9 µM; Times less toxic than narciclasine in Vero cells (Vero cells; ratio versus narciclasine): 430 times
C[C@@H]1O[C@@H](OC[C@H]2O[C@@H](Oc3c(-c4ccc(O)c(O)c4)oc4cc(O)cc(O)c4c3=O)[C@H](O)[C@@H](O)[C@@H]2O)[C@H](O)[C@H](O)[C@H]1O [Rutine] | No | – | > 300 | no antiviral activity; also recorded: Inactive | > 300 | – | ZIKV EC50 (µM) (ZIKV [4]): no antiviral activity; also recorded: Inactive
CO[C@@H]1C=C[C@@]23c4cc5c(cc4C(O)O[C@H]2CN(C)[C@H]3C1)OCO5 (stereo partly drawn) [Pretazettine] | No | No | – | – | – | – | CC50 ([2]; BHK-21 cell monolayers): 5.4 µM; EC50 (DENV-2 [3]; [7]): 0.8 µM; EC50 (ZIKV [4]; Zika virus): 1900 nM; CC50 ([6]; Vero cell monolayers): 7.2 µM
